pIC50: −log10 of the molar value. In brackets after ≈: the same amount, converted by molar mass. Activity calls are given as the source filed them. No cut-off for these calls is given here.
How the values were obtained:
A-375 = assay: Antiproliferative activity against human A-375 cells assessed as cell growth inhibition incubated for 72 hrs by MTS assay; format: functional, cell-based; conditions: A-375, 72 h
M14 [1] = assay: Antiproliferative activity against human M14 cells assessed as cell growth inhibition incubated for 72 hrs by MTS assay; format: functional, cell-based; conditions: M14, 72 h
[2] = Metabolic stability in mouse liver microsomes assessed as half life in presence of NADPH regenerating system by UPLC-MS analysis; format: ADME, Microsome; conditions: microsomes
[3] = Metabolic stability in mouse liver microsomes assessed as intrinsic clearance in presence of NADPH regenerating system by UPLC-MS analysis; format: ADME, Microsome; conditions: read-out: CLH
[4] = Aqueous solubility of compound in pH 7.4 PBS buffer; format: physicochemical
CYP2C9 = CYP2C9 (Homo sapiens, UniProt P11712); assay: Inhibition of CYP2C9 in human liver microsomes using diclofenac as substrate at 10 uM; format: ADME; conditions: probe diclofenac
CYP2C19 = CYP2C19 (Homo sapiens, UniProt P33261); assay: Inhibition of CYP2C19 in human liver microsomes using omeprazole as substrate at 10 uM; format: ADME; conditions: probe omeprazole
CYP2D6 = CYP2D6 (Homo sapiens, UniProt P10635); assay: Inhibition of CYP2D6 in human liver microsomes using dextromethorphan as substrate at 10 uM; format: ADME; conditions: probe dextromethorphan
CYP3A = assay: Inhibition of CYP3A in human liver microsomes using testosterone as substrate at 10 uM; format: ADME; conditions: probe testosterone
Salmonella typhimurium = assay: Mutagenicity in Salmonella typhimurium TA1535 by Ames test; format: toxicity, organism-based; conditions: salmonella enterica subsp. enterica serovar typhimurium
[5] = Cmax in NSG mouse at 10 mg/kg, ip; format: ADME, organism-based; parameters: route intraperitoneal, dose 10 mg/kg; conditions: in vivo
[6] = AUClast in NSG mouse at 10 mg/kg, ip; format: ADME, organism-based; parameters: time 0 - last, route intraperitoneal, dose 10 mg/kg; conditions: in vivo
[7] = Clearance in NSG mouse at 10 mg/kg, ip; format: ADME, organism-based; conditions: in vivo
MDA-MB-231 = assay: Cytotoxicity against human MDA-MB-231 cells measured after 72 hrs […]; format: functional, cell-based; conditions: MDA-MB-231, 72 h
[8] = Cytotoxicity against paclitaxel resistant human MDA-MB-231/TxR cells measured after 72 hrs […]; format: functional, cell-based
M14 [9] = assay: Cytotoxicity against paclitaxel resistant human M14 cells measured after 72 hrs […]; format: functional, cell-based; conditions: M14, 72 h
Sus scrofa = species on record: Sus scrofa; assay: Inhibition of porcine brain tubulin polymerization assessed as inhibition of microtubule polymerization at 10 uM measured for 1 hrs by microplate reader method
[10] = Anticlonogenic activity against paclitaxel resistant human A-375 cells assessed as inhibition of colony formation at 5 nM treated for 7 days by crystal violet staining based microscopic analysis; format: functional, A375/TxR; parameters: scale not given: the % may be the effect or the level left; conditions: time 7 day
A375/TxR [11] = assay: Induction of cell cycle arrest in human A375/TxR cells assessed as decrease in accumulation at G1 phase measured for 24 hrs by PI staining based flow cytometry analysis; format: functional
A375/TxR [12] = assay: Induction of cell cycle arrest in human A375/TxR cells assessed as accumulation at G2/M phase measured for 24 hrs by PI staining based flow cytometry analysis; format: functional
[13] = Induction of apoptosis in human A375/TxR cells assessed as apoptotic cells at 2.5 nM measured for 24 hrs by annexin VFITC /PI staining based analysis (reference value: […]); format: functional
[14] = Induction of apoptosis in human A375/TxR cells assessed as apoptotic cells at 5 nM measured for 24 hrs by annexin VFITC /PI staining based analysis (reference value: […]); format: functional
[15] = Antitumor activity against human A375/TxR cells xenografted in SCID mouse assessed as reduction in tumor volume at 20 mg/kg, ip administered 3 times/week for 18 days; format: functional; parameters: scale not given: the % may be the effect or the level left; conditions: time 18 day
[16] = Antimetastatic activity against human A375/TxR cells xenografted in SCID mouse assessed as metastatic in liver at 10 mg/kg, ip; format: functional
A375/TxR [17] = assay: Antimetastatic activity against human A375/TxR cells xenografted in SCID mouse assessed as metastatic in liver at 20 mg/kg, ip; format: functional, organism-based
[18] = Systemic toxicity in human A375/TxR cells xenografted in SCID mouse tumor model assessed as pathological change in liver at 10 to 20 mg/kg, ip by H and E staining based analysis; format: organism-based; conditions: in vivo, dose 10-20 mg/kg
[19] = Systemic toxicity in human A375/TxR cells xenografted in SCID mouse tumor model assessed as pathological change in kidney at 10 to 20 mg/kg, ip by H and E staining based analysis; format: organism-based; conditions: in vivo, dose 10-20 mg/kg
[20] = Systemic toxicity in human A375/TxR cells xenografted in SCID mouse tumor model assessed as pathological change in spleen at 10 to 20 mg/kg, ip by H and E staining based analysis; format: organism-based; conditions: in vivo, dose 10-20 mg/kg
[21] = Tmax in NSG mouse at 10 mg/kg, ip; format: ADME, organism-based; conditions: in vivo
[22] = Apparent volume of distribution during terminal phase in NSG mouse at 10 mg/kg, ip; format: ADME, organism-based; conditions: in vivo, read-out: Vz/F
[23] = Induction of cell cycle arrest in human A375/TxR cells assessed as accumulation at G2/M phase at 10 nM measured for 24 hrs by PI staining based flow cytometry analysis

Sequence of CYP2C9 (P11712 whole entry): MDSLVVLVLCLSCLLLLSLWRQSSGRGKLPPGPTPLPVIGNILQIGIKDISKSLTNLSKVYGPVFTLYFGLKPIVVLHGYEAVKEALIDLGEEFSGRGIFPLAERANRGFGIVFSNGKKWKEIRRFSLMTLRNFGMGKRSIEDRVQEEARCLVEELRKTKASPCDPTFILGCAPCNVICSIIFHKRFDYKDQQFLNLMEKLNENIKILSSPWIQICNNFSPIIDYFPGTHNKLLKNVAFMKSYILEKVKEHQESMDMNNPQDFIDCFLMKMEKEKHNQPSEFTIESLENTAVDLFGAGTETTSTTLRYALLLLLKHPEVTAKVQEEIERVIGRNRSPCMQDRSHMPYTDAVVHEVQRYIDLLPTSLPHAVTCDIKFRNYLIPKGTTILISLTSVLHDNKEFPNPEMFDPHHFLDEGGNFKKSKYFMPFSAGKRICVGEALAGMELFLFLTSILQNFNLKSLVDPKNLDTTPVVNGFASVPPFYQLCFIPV
Sequence of CYP2C19 (P33261 whole entry): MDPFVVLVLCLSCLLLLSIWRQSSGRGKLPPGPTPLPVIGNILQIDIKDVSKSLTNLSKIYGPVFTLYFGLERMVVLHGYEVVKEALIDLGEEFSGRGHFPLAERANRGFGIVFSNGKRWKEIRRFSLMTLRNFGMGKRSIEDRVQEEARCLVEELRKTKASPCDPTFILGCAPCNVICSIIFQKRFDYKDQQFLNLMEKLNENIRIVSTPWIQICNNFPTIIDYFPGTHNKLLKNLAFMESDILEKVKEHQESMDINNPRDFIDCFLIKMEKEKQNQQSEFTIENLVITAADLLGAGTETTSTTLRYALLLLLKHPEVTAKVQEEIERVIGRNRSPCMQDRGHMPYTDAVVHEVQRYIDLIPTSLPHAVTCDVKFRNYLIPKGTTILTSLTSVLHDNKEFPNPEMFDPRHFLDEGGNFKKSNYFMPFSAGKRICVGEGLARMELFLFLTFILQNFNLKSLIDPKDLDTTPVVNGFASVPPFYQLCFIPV
Sequence of CYP2D6 (P10635 whole entry): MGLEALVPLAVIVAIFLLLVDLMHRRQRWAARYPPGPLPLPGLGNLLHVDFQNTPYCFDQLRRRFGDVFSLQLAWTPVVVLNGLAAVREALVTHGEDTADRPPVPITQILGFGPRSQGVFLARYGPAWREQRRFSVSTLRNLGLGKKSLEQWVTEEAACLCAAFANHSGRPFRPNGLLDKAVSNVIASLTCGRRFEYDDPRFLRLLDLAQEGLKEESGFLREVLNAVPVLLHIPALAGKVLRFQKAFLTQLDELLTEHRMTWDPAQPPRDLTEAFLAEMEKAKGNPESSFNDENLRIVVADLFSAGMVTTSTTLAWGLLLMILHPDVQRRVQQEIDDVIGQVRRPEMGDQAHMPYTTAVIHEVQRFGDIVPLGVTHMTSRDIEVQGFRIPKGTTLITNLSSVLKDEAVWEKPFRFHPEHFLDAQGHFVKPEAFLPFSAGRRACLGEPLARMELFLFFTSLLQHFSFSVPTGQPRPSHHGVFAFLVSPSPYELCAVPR

**Q.** With `COc1cc(C(=O)c2nc(-c3ccc(C)c(O)c3)ccc2F)cc(OC)c1OC` as the compound, how does the pIC50 (A-375) read?
**A.** Its pIC50 is 8.74.

**Q.** And the pIC50 (M14 [1])?
**A.** Its pIC50 is 8.72.

**Q.** What about the t1/2 [2] of the same compound?
**A.** The t1/2 was over 240 min.

**Q.** What about the CLint scaled [3] of the same compound?
**A.** Its CLint scaled is 4.6 mL/min/kg.

**Q.** What about the solubility [4] of the same compound?
**A.** Its solubility is 0.1 µM (≈ 0.0397 µg/mL).

**Q.** And the inhibition at 10 µM (CYP2C9)?
**A.** Its inhibition at 10 µM is 54.7%.

**Q.** What about the inhibition at 10 µM (CYP2C19) of the same compound?
**A.** Its inhibition at 10 µM is 49%.

**Q.** And the inhibition at 10 µM (CYP2D6)?
**A.** The inhibition at 10 µM was 11.9%.

**Q.** And the inhibition at 10 µM (CYP3A)?
**A.** Its inhibition at 10 µM is 51.8%.

**Q.** What about the Activity (Salmonella typhimurium) of the same compound?
**A.** The Activity was “Non-Toxic”.

**Q.** And the Cmax [5]?
**A.** The Cmax was 6210 ng/mL.

**Q.** And the AUClast [6]?
**A.** Its AUClast is 4872.07 h/ng/mL.

**Q.** And the CL/F [7]?
**A.** Its CL/F is 34.1 mL/min/kg.

**Q.** What about the pIC50 (MDA-MB-231) of the same compound?
**A.** The pIC50 was 8.24.

**Q.** What about the pIC50 [8] of the same compound?
**A.** Its pIC50 is 8.68.

**Q.** And the pIC50 (M14 [9])?
**A.** The pIC50 was 8.31.

**Q.** And the inhibition (Sus scrofa)?
**A.** The inhibition was “Active”.

**Q.** What about the Activity [10] of the same compound?
**A.** Its Activity is 95%.

**Q.** And the Activity (A375/TxR [11])?
**A.** The Activity was “Dose-Dependent Effect”.

**Q.** What about the Activity (A375/TxR [12]) of the same compound?
**A.** Its Activity is “Dose-Dependent Effect”.

**Q.** And the Activity [13]?
**A.** Its Activity is 14.5%.

**Q.** And the Activity [14]?
**A.** Its Activity is 45.4%.

**Q.** What about the Activity [15] of the same compound?
**A.** The Activity was 72.9%.

**Q.** What about the Activity [16] of the same compound?
**A.** Its Activity is 33%.

**Q.** And the Activity (A375/TxR [17])?
**A.** The Activity was “inactive”.

**Q.** What about the Activity [18] of the same compound?
**A.** Its Activity is “Non-Toxic”.

**Q.** And the Activity [19]?
**A.** The Activity was “Non-Toxic”.

**Q.** What about the Activity [20] of the same compound?
**A.** The Activity was “Non-Toxic”.

**Q.** What about the Tmax [21] of the same compound?
**A.** Its Tmax is 10.2 min.

**Q.** And the Vd/F [22]?
**A.** Its Vd/F is 12.3 L/kg.

**Q.** And the Activity [23]?
**A.** The Activity was 62%.

— ChEMBL document CHEMBL5029155, “Design, Synthesis, and Biological Evaluation of Stable Colchicine-Binding Site Tubulin Inhibitors 6-Aryl-2-benzoyl-pyridines as Potential Anticancer Agents” (J Med Chem, 2021)
